Test results as given in patent US20160151275A1, “METHOD AND DEVICES FOR MANUFACTURING AND DELIVERING OF AEROSOLIZED FORMULATIONS” (priority 2014, published 2016).
Where two headings read alike, the source gives them in different places.

Settings: human

- bioavailability: ~10%
- bioavailability (inhaled or intranasal): 80 to 90%
Structure (SMILES): Cn1c(=O)c2c(ncn2C)n(C)c1=O [caffeine]
